In the NIST ThermoML archive (doi:10.1021/je5002945):
Numbers after ± are expanded uncertainties.

Conditions: 101.33 kPa, Liquid, Vibrating tube method

Structure (SMILES) | mass density (293.15 K) [kg/m3] | mass density (298.15 K) [kg/m3] | mass density (303.15 K) [kg/m3] | mass density (308.15 K) [kg/m3] | mass density (313.15 K) [kg/m3] | mass density (318.15 K) [kg/m3] | mass density (323.15 K) [kg/m3]
CC(=O)N(C)C [N,N-dimethylethanamide] | 940.92 ± 0.23 | 936.3 ± 0.23 | 931.62 ± 0.23 | 926.89 ± 0.23 | 922.09 ± 0.23 | 917.23 ± 0.23 | 912.23 ± 0.23
CCCCN(C=O)CCCC [N,N-dibutylformamide] | 879.05 ± 0.23 | 875.12 ± 0.23 | 871.17 ± 0.23 | 867.15 ± 0.23 | 863.11 ± 0.23 | 859.01 ± 0.23 | 854.82 ± 0.23

Results, then the compound that gave them:

mass density (293.15 K) [kg/m3] | mass density (298.15 K) [kg/m3] | mass density (303.15 K) [kg/m3] | mass density (308.15 K) [kg/m3] | mass density (313.15 K) [kg/m3] | mass density (318.15 K) [kg/m3] | mass density (323.15 K) [kg/m3] | Structure (SMILES)
1003.35 ± 0.23 | 998.91 ± 0.23 | 994.49 ± 0.23 | 990.01 ± 0.23 | 985.47 ± 0.23 | 980.88 ± 0.23 | 976.24 ± 0.23 | CNC=O [N-methylformamide]
948.72 ± 0.07 | 943.86 ± 0.07 | 939 ± 0.07 | 934.08 ± 0.07 | 929.13 ± 0.08 | 924.06 ± 0.08 | 918.96 ± 0.08 | CN(C)C=O [dimethylformamide]
951.59 ± 0.23 | 947.48 ± 0.23 | 943.29 ± 0.23 | 939.04 ± 0.23 | 934.78 ± 0.23 | 930.45 ± 0.23 | 926.06 ± 0.23 | CCNC=O [N-ethylformamide]
